The inhibition is how much of the control response was suppressed.

The assay deals with SARS-CoV-2 ORF 3a protein (Severe acute respiratory syndrome coronavirus 2, UniProt P0DTC3). Nature of the assay: cell-based. The following applies: read-out: % inhibition at 100 μM.
Regarding `CC(C)NC[C@@H](O)c1ccc(NS(C)(=O)=O)cc1` [D-Sotalol], the inhibition at 100 µM came out at 20.6 ± 4.5%.

Take `CN(CCOc1ccc(NS(C)(=O)=O)cc1)CCc1ccc(NS(C)(=O)=O)cc1` [Dofetilide]: the inhibition at 100 µM worked out at 65.1 ± 6.7%. Take `CCCCc1oc2ccc(NS(C)(=O)=O)cc2c1C(=O)c1ccc(OCCCN(CCCC)CCCC)cc1` [Dronedarone]: the inhibition at 100 µM is 45.4 ± 4.7%. As for `CCCCCCCN(CC)CCCC(O)c1ccc(NS(C)(=O)=O)cc1` (stereo not shown) [Ibutilide], the inhibition at 100 µM came out at 36.4 ± 6.6%.

The values above are taken from PMC11481279 (Europace, 2024).
